From patent publication US8013153B2, “Substituted pyrimidine kinase inhibitors” (Janssen Pharmaceutica, N.V., priority 2006, dated 2011)

Experiments:
A375 human skin melanoma = assay: In vivo inhibition of tumor growth, A375 model; design: species or system athymic nude mice
Text: (§1) Female Nu/Nu˜nuBR athymic nude mice (obtained from Charles River Laboratories), at the age of 5-6 weeks were feed water and an irradiated standard rodent diet ad libitum, and housed in specific pathogen-free conditions, according to the guidelines of the American Association for Accreditation of Lab Animal Care (AALAC).
Mice were implanted subcutaneously in the right hind flank with the various tumor cell suspensions in HBSS containing 10% FBS: A431 human epidermoid carcinoma (4×10^6 cells/mouse), HCT116 human colorectal carcinoma (4×10^6 cells/mouse) and A375 human skin melanoma (2×10^6 cells/mouse).
The A431 epidermoid carcinoma cell line was chosen due to its ability to secrete VEGF in culture and its dependency on VEGF for angiogenesis and growth in vivo (Viloria-Petit A, Crombet T, Jothy S, et al. (2001) Cancer Res 61: 5090-5101). The HCT116 colon carcinoma cell line is dependent on the expression of VEGF to form tumors in nude mice (Okada F, Rak J, St. Croix B, et al. (1998) Proc Natl Acad Sci USA 95: 3609-3614). […]
In the A375 model, Compound 50 was administered at 100 mg/kg, qd. Treatment ended after 28 days, then tumor growth delay was analyzed to day 60.
(§2) The tumors were allowed to establish growth for 10 to 14 days. Tumor size was measured every 3 days. […]
(§3) Tumor measurements and body weights were recorded individually (2×/week) during the treatment period of the experiment. Tumors were measured using a digital caliper. Data was recorded/calculated using Study Director software (StudyLog Systems, Inc.) and graphs were created in GraphPad Prizm.
The volume of each tumor in an animal was calculated according to the formula: (D×d^2)/2, where the diameters were determined from two orthogonal measurements on each tumor. The mean tumor volume was determined by averaging all tumor volumes in each group. The mean body weight was determined by averaging all body weights in each group.
The standard deviation was calculated according to the formula (where x was the tumor volume): [Σx^2−((Σx)2/n)]/n−1 […]

[1] = tested on: HCT116 human colorectal carcinoma; assay: In vivo inhibition of tumor growth, HCT116 model; design: species or system athymic nude mice; conditions: 10 mg/kg daily, oral
Text: as §1
Mice were implanted subcutaneously in the right hind flank with the various tumor cell suspensions in HBSS containing 10% FBS: A431 human epidermoid carcinoma (4×10^6 cells/mouse), HCT116 human colorectal carcinoma (4×10^6 cells/mouse) and A375 human skin melanoma (2×10^6 cells/mouse). […]
as §2, §3
The volume of each tumor in an animal was calculated according to the formula: (D×d^2)/2, where the diameters were determined from two orthogonal measurements on each tumor. The mean tumor volume was determined by averaging all tumor volumes in each group. The mean body weight was determined by averaging all body weights in each group. […]

murine Aurora-A = molecular target: T1, murine Aurora-A (Mus musculus, UniProt P97477); assay: Aurora-A Screening Assay; assay type: biochemical
T1 construct: replaced with the full length protein encoding the murine Aurora-A; made in house; host or cells: sf9 insect cells
T1 sequence (P97477 1-395): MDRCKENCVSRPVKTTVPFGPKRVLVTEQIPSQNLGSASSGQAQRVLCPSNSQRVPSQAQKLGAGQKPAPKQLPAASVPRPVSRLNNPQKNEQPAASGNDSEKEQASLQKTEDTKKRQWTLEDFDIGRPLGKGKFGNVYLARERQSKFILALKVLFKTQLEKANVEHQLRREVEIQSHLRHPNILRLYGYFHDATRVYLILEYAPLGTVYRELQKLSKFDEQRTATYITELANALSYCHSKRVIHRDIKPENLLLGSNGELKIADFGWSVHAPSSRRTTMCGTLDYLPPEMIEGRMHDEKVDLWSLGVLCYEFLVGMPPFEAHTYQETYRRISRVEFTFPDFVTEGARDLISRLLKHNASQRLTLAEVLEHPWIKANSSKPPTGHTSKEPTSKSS

CCNC(=O)Nc1ccc(Oc2ncnc(N)c2/C=N/OC)cc1Cl [Cpd 50, 1-{4-[6-amino-5-(methoxyimino-methyl)-pyrimidin-4-yloxy]-2-chloro-phenyl}-3-ethyl-urea]
tumor growth delay maintained after completion of treatment (A375 human skin melanoma; 100 mg/kg qd for 28 days): 3 weeks
body weights of treated animals (A375 human skin melanoma; 28 days of continuous dosing, 100 mg/kg): comparable to the control group
inhibition of growth (A375 human skin melanoma; daily doses of 100 mg/kg, oral, 28 days): 90%
inhibition of tumor growth [1]: < 50%
IC50 (murine Aurora-A): > 100 µM
